Experimental data published in ChEMBL document CHEMBL4765280, “Carvedilol serves as a novel CYP1B1 inhibitor, a systematic drug repurposing approach through structure-based virtual screening and experimental verification” (Eur J Med Chem, 2020).
pIC50: −log10 of the molar value.

Experiments:
Cytochrome P450 1B1 [1] = target: T1, Cytochrome P450 1B1 (Homo sapiens, UniProt Q16678); assay: Inhibition of human CYP1B1 using 7-ethyl-O-resorufin as substrate incubated for 30 mins in presence of NADPH by EROD assay
T1 sequence (Q16678 whole entry): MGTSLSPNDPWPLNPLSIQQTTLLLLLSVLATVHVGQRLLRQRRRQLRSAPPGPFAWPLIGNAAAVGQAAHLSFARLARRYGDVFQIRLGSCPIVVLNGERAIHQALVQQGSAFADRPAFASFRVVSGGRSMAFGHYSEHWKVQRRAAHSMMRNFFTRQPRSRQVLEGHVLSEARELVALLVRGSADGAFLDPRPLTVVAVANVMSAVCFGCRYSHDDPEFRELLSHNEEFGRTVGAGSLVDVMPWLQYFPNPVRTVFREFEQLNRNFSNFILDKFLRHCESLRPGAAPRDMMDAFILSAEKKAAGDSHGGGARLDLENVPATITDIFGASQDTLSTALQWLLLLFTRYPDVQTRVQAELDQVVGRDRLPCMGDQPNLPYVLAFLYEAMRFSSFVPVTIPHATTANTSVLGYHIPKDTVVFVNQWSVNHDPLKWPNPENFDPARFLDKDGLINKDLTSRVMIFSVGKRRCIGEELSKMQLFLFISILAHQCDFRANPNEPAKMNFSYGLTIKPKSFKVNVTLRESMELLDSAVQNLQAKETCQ

Cytochrome P450 1B1 [2] = target: T1, Cytochrome P450 1B1; assay: Inhibition of human CYP1B1 at 5 uM using 7-ethyl-O-resorufin as substrate incubated for 30 mins in presence of NADPH by EROD assay; details: 0.5 h
A549/Taxol = assay: Cytotoxicity against human A549/Taxol cells assessed as reduction in cell viability after 72 hrs by MTT assay; type: functional, cell-based; details: dose 5-10 µM
A549 = assay: Cytotoxicity against human A549 cells assessed as reduction in cell viability after 72 hrs by MTT assay; type: functional, cell-based; details: dose 5-10 µM

Row | Compound | pIC50 (Cytochrome P450 1B1 [1]) | inhibition (INH) (Cytochrome P450 1B1 [2]) | Activity (A549/Taxol) | Activity (A549)
1 | COc1ccccc1OCCNCC(O)COc1cccc2[nH]c3ccccc3c12 (stereo not given) [CARVEDILOL] | 5.96 | Active | Dose-dependent effect | Dose-dependent effect
2 | C#C[C@]1(O)CC[C@H]2[C@@H]3CCc4cc(O)ccc4[C@H]3CC[C@@]21C [ETHINYL ESTRADIOL] |  | Not Active |  | 
3 | CCN(CCO)CCCC(C)Nc1ccnc2cc(Cl)ccc12.O=S(=O)(O)O (stereo not given) [HYDROXYCHLOROQUINE SULFATE] |  | Not Active |  | 
4 | CCc1cc2c(cc1CC)CC(NC[C@H](O)c1ccc(O)c3[nH]c(=O)ccc13)C2 [INDACATEROL] | 4.23 | Active |  | 
5 | CC(CCc1ccccc1)NCC(O)c1ccc(O)c(C(N)=O)c1 (stereo not given) [LABETALOL] |  | Not Active |  | 
6 | C=C[C@H]1C[N@@]2CC[C@H]1C[C@@H]2[C@@H](O)c1ccnc2ccc(OC)cc12 [QUINIDINE] |  | Not Active |  | 
